Test results published in patent US9580432B2, “Fused pyrimidine compound or salt thereof” (TAIHO PHARMACEUTICAL CO., LTD., priority 2013, dated 2017).

Legend:
A431 cells / TMD8 cells = test: Proliferation inhibitory activity against cell lines expressing BTK and EGFR (in vitro), comparison of selectivity; assay type: cell-based, human; details: ratio from GI50 (nM), 3 days culture, CELLTITER GLO
Description: TMD8 cells, which are of a diffuse large B-cell lymphoma cell line expressing BTK, were suspended in RPMI1640 medium (manufactured by Life Technologies Corp.) containing 10% fetal bovine serum. A431 cells, which are of an EGFR-overexpressing, highly activated human epidermoid carcinoma cell line, were suspended in DMEM, high glucose medium (manufactured by Life Technologies Corp.) containing 10% fetal bovine serum. The cell suspensions were inoculated into each well of 384-well flat-bottomed microplates, and the cells were cultured for 1 day at 37° C. in an incubator containing 5% carbon dioxide gas. […] A DMSO solution of the test compounds was diluted with the medium used in the suspension of the each cells, and this was added to each of the wells of the cell culture plates such that the final concentration of DMSO would be 0.2%. The cells were further cultured for 3 days at 37° C. in an incubator containing 5% carbon dioxide gas. […] Proliferation inhibition ratio (%)=(C−T)/(C−C0)×100
T: Luminescence intensity of a well in which the test compound was added
C: Luminescence intensity of a well in which the test compound was not added
C0: Luminescence intensity of a well measured before the addition of the test compound
When a comparison is made between the cell proliferation inhibitory activity against A431 cells that depends on the EGFR proliferation signaling and the cell proliferation inhibitory activity against TMD8 cells that depends on the BTK proliferation signaling, the influence of the respective kinases at a cellular level is able to be evaluated. That is, when the “A431 cell proliferation inhibition ratio/TMD8 cell proliferation inhibition ratio” is calculated, it is contemplated that as the value of the ratio is larger, the selectivity to BTK over EGFR in the cells is higher.

[1] = tested on: purified recombinant human EGFR protein / BTK; test: BTK inhibition selectivity compared with EGFR kinase inhibitory activity (in vitro); assay type: biochemical; details: EGFR assay ATP 1.5 μM
Description: 1) Measurement of BTK Inhibitory Activity
2) Measurement of EGFR Inhibitory Activity
Therefore, a biotinated peptide (biotin-[…]) was produced by referring to the amino acid sequence of the peptide. The purified recombinant human EGFR protein used in the test was purchased from Carna Biosciences, Inc.
With regard to the measurement of the inhibitory activity of the compounds, firstly, the compounds of the present invention were diluted stepwise with dimethyl sulfoxide (DMSO). […] The reaction was terminated by adding EDTA thereto in order to obtain a final concentration of 24 mM. Subsequently, a detection liquid containing Eu-labeled anti-phosphorylated tyrosine antibody PT66 (PerkinElmer, Inc.) and […] APC-SA (PerkinElmer, Inc.) was added thereto, and the system was left to stand for 2 hours or longer at room temperature.
3) BTK Inhibition Selectivity

[2] = molecular target: purified recombinant human BTK protein (Homo sapiens (Human), UniProt Q06187); test: Measurement of BTK inhibitory activity (in vitro); assay type: biochemical; details: FL-PEPTIDE 2 substrate 1 μM, ATP 45 μM, 40 minutes at 25° C.
Chain of purified recombinant human BTK protein (Q06187 whole entry): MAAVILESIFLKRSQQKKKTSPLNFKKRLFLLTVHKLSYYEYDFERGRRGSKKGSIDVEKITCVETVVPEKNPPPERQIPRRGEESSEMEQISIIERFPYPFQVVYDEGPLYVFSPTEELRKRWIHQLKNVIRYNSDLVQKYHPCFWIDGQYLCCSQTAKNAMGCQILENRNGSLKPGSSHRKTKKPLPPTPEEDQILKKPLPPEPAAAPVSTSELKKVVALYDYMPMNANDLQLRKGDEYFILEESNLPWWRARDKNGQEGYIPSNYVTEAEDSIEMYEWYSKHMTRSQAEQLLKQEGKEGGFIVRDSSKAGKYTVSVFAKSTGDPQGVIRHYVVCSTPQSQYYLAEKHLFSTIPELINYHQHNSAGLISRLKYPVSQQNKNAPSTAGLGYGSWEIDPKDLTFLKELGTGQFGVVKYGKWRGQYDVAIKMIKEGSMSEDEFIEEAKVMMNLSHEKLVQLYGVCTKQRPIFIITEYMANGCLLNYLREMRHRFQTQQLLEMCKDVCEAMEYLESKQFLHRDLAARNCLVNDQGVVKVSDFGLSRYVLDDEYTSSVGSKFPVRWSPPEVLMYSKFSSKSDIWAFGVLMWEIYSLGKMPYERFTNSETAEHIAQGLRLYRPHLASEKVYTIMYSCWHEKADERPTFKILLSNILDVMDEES
Method in brief: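 Recombinant human BTK with FL-PEPTIDE 2 substrate (1 μM), 45 μM ATP and 10 mM MgCl2 in 20 mM HEPES pH 7.5, 2 mM DTT, 0.01% Triton X-100, 5% DMSO; 40 min at 25° C. Reaction stopped with 30 mM EDTA. Phosphorylated and unphosphorylated peptide separated and detected by microchannel capillary electrophoresis.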

Compound | A431 cell proliferation inhibition ratio/TMD8 cell proliferation inhibitio ratio (A431 cells / TMD8 cells) | EGFR inhibitory activity IC50 value (nM)/BTK inhibitory activity IC50 value (nM) [1] | IC50 [2] [nM]
C=CC(=O)N1CCCC(Cn2nc(C(=O)Nc3nc4ccccc4o3)c3c(N)ncnc32)C1 (centres unmarked) [Example 67, 1-((1-acryloylpiperidin-3-yl)methyl)-4-amino-N-(benzo[d]oxazol-2-yl)-1H-pyrazolo[3,4-d]pyrimidine-3-carboxamide] | >2168.7 | 18.0 | 14
CC(C)N(C)C/C=C/C(=O)N1CC[C@@H](n2cc(C(=O)Nc3nc4cc(Cl)ccc4o3)c3c(N)ncnc32)C1 [Example 52, (R,E)-4-amino-N-(5-chlorobenzo[d]oxazol-2-yl)-7-(1-(4-(isopropyl(methyl)amino)but-2-enoyl)pyrrolidin-3-yl) 7H-pyrrolo[2,3-d]pyrimidine-5-carboxamide] | >3617.9 | 20.6 | 1.2
C=CC(=O)N1CC(Cn2nc(C(=O)Nc3nc4ccccc4o3)c3c(N)ncnc32)C1 [Example 70, 1-((1-acryloylazetidin-3-yl)methyl)-4-amino-N-(benzo[d]oxazol-2-yl)-1H-pyrazolo[3,4-d]pyrimidine-3-carboxamide] | >8369.4 | 12.2 | 3.17
CCN(CC)C/C=C/C(=O)N1CC[C@@H](n2cc(C(=O)Nc3nc4cc(Cl)ccc4o3)c3c(N)ncnc32)C1 [Example 51, (R,E)-4-amino-N-(5-chlorobenzo[d]oxazol-2-yl)-7-(1-(4-(diethylamino)but-2-enoyl)pyrrolidin-3-yl) 7H-pyrrolo[2,3-d]pyrimidine-5-carboxamide] | >2044.6 | 31.1 | 1.48
C=CC(=O)N1CC[C@@H](n2nc(C(=O)Nc3nc4cc(C#N)ccc4o3)c3c(N)ncnc32)C1 [Example 39, (R)-1-(1-acryloylpyrrolidin-3-yl)-4-amino-N-(5-cyanobenzo[d]oxazol-2-yl)-1H-pyrazolo[3,4-d]pyrimidine-3-carboxamide] | >3510.0 | 37.5 | 1.12
CN(C)C/C=C/C(=O)N1CC[C@@H](n2nc(C(=O)Nc3nc4cc(-c5ccccc5)ccc4o3)c3c(N)ncnc32)C1 [Example 42, (R,E)-4-amino-N-(5-phenylbenzo[d]oxazol-2-yl)-1-(1-(4-(dimethylamino)but-2-enoyl)pyrrolidin-3-yl)-1H-pyrazolo[3,4-d]pyrimidine-3-carboxamide] | 3934.1 | 19.4 | 0.771
CN(C)C/C=C/C(=O)N1CC[C@@H](n2nc(C(=O)Nc3nc4cc(Cl)ccc4o3)c3c(N)ncnc32)C1 [Example 32, (R,E)-4-amino-N-(5-chlorobenzo[d]oxazol-2-yl)-1-(1-(4-(dimethylamino)but-2-enoyl)pyrrolidin-3-yl)-1H-pyrazolo[3,4-d]pyrimidine-3-carboxamide] | >11123.5 | 43.1 | 0.634
CC(C)N(C)C/C=C/C(=O)N1CC[C@@H](n2nc(C(=O)Nc3nc4cc(Cl)ccc4o3)c3c(N)ncnc32)C1 [Example 35, (R,E)-4-amino-N-(5-chlorobenzo[d]oxazol-2-yl)-1-(1-(4-(isopropyl(methyl)amino)but-2-enoyl)pyrrolidin-3-yl)-1H-pyrazolo[3,4-d]pyrimidine-3-carboxamide] | >18691.6 | 35.1 | 0.792
CN(C)C/C=C/C(=O)N1CCC[C@@H](n2nc(C(=O)Nc3nc4cc(Cl)ccc4o3)c3c(N)ncnc32)C1 [Example 15, (R,E)-4-amino-N-(5-chlorobenzo[d]oxazol-2-yl)-1-(1-(4-(dimethylamino)but-2-enoyl)piperidin-3-yl)-1H-pyrazolo[3,4-d]pyrimidine-3-carboxamide] | 16442.0 | 145.0 | 0.786
CCN(CC)C/C=C/C(=O)N1CCC[C@@H](n2nc(C(=O)Nc3nc4cc(Cl)ccc4o3)c3c(N)ncnc32)C1 [Example 17, (R,E)-4-amino-N-(5-chlorobenzo[d]oxazol-2-yl)-1-(1-(4-(diethylamino)but-2-enoyl)piperidin-3-yl)-1H-pyrazolo[3,4-d]pyrimidine-3-carboxamide] | >12345.7 | 157.2 | 0.811
C/C=C/C(=O)N1CC[C@@H](n2nc(C(=O)Nc3nc4cc(Cl)ccc4o3)c3c(N)ncnc32)C1 [Example 25, (R,E)-4-amino-N-(5-chlorobenzo[d]oxazol-2-yl)-1-(1-(but-2-enoyl)pyrrolidin-3-yl)-1H-pyrazolo[3,4-d]pyrimidine-3-carboxamide] | 2793.0 | 173.7 | 1.17
C=CC(=O)N1CCC[C@@H](n2nc(C(=O)Nc3nc4ncccc4o3)c3c(N)ncnc32)C1 [Example 9, (R)-1-(1-acryloylpiperidin-3-yl)-4-amino-N-(oxazolo[4,5-b]pyridin-2-yl)-1H-pyrazolo[3,4-d]pyrimidine-3-carboxamide] | 8196.7 | 28.4 | 1.37
C=CC(=O)N1CCC(Cn2nc(C(=O)Nc3nc4cc(Cl)ccc4o3)c3c(N)ncnc32)CC1 [Example 80, 1-((1-acryloylpiperidin-4-yl)methyl)-4-amino-N-(5-chlorobenzo[d]oxazol-2-yl)-1H-pyrazolo[3,4-d]pyrimidine-3-carboxamide] | 14348.9 | 75.4 | 
C=CC(=O)N1CCC(Cn2nc(C(=O)Nc3nc4cc(F)ccc4o3)c3c(N)ncnc32)CC1 [Example 77, 1-((1-acryloylpiperidin-4-yl)methyl)-4-amino-N-(5-fluorobenzo[d]oxazol-2-yl)-1H-pyrazolo[3,4-d]pyrimidine-3-carboxamide] | >6793.5 | 203.7 | 
C=CC(=O)N[C@H]1CC[C@@H](n2nc(C(=O)Nc3nc4cc(F)ccc4o3)c3c(N)ncnc32)CC1 [Example 81, 1-((1S,4S)-4-acrylamidocyclohexyl)-4-amino-N-(5-fluorobenzo[d]oxazol-2-yl)-1H-pyrazolo[3,4-d]pyrimidine-3-carboxamide] | 8346.7 | 204.9 | 
C=CC(=O)N1CCC(n2nc(C(=O)Nc3nc4cc(F)ccc4o3)c3c(N)ncnc32)C1 (centres unmarked) [Example 83, 1-(1-acryloylpyrrolidin-3-yl)-4-amino-N-(5-fluorobenzo[d]oxazol-2-yl)-1H-pyrazolo[3,4-d]pyrimidine-3-carboxamide] | >18797.0 | 39.6 | 
